Results: patent publication US20070104644A1, “Inhibitor imaging agents” (priority 2003, published 2007)

Tested on: Lewis lung carcinoma (LLC) tumour
Test: Biodistribution in LLC tumour model in vivo
Parameters: species or system C57BL/6 mice
Method: 1×10^6 Lewis lung carcinoma (LLC) cells are injected subcutaneously into right inner thigh of C57BL/6 mice. Tumours were allowed to grow for 15 days prior to biodistribution being carried out.
Biodistribution studies were performed in the LLC tumour model.
Biodistribution was performed in the LLC tumour model of Example 23 with Compounds 46B and 48B.

SMILES	% ID Urinary (urinary excretion), mean (5 min post injection)	% ID/g Tumour, mean (5 min post injection)	Tumour/Blood, mean (5 min post injection)	Tumour/Heart, mean (5 min post injection)	Tumour/Lung, mean (5 min post injection)	Tumour/Muscle, mean (5 min post injection)	% ID Urinary (urinary excretion), mean (30 min post injection)	% ID/g Tumour, mean (30 min post injection)	Tumour/Blood, mean (30 min post injection)	Tumour/Heart, mean (30 min post injection)	Tumour/Lung, mean (30 min post injection)	Tumour/Muscle, mean (30 min post injection)	% ID Urinary (urinary excretion), mean (60 min post injection)	% ID/g Tumour, mean (60 min post injection)	Tumour/Blood, mean (60 min post injection)	Tumour/Heart, mean (60 min post injection)	Tumour/Lung, mean (60 min post injection)	Tumour/Muscle, mean (60 min post injection)	% ID Urinary (urinary excretion), mean (120 min post injection)	% ID/g Tumour, mean (120 min post injection)	also measured
NCCCC[C@H](NC(=O)CCN(C1(C(=O)NO)CCCC1)S(=O)(=O)c1ccc(Oc2ccc(F)cc2)cc1)C(=O)N[C@@H](CCCCN)C(=O)N[C@@H](CCCCN)C(=O)N[C@@H](CCCCN)C(=O)N[C@@H](CCCCN)C(=O)NCCOCCOCCOCCNC(=O)COCC(=O)N[C@@H](Cc1ccc(O)c([123I])c1)C(N)=O [Compound 42A]	6.89 % ID	2.26 % ID/g	0.26	0.47	0.26	1.46	16.98 % ID	2.67 % ID/g	0.54	1.24	0.57	3.22	31.69 % ID	2.35 % ID/g	0.66	1.49	0.74	3.52	48.07 % ID	1.29 % ID/g	Tumour/Blood, mean (120 min post injection): 0.56; Tumour/Heart, mean (120 min post injection): 1.49; Tumour/Lung, mean (120 min post injection): 0.60; Tumour/Muscle, mean (120 min post injection): 2.51
NC(=O)[C@H](Cc1ccc(O)c([123I])c1)NC(=O)[C@H](CCC(=O)O)NC(=O)[C@H](CCC(=O)O)NC(=O)[C@H](CCC(=O)O)NC(=O)[C@H](CCC(=O)O)NC(=O)[C@H](CCC(=O)O)NC(=O)CCN(C1(C(=O)NO)CCCC1)S(=O)(=O)c1ccc(Oc2ccc(F)cc2)cc1 [Compound 21A]	5.62 % ID	1.64 % ID/g	0.13	0.30	0.28	0.92	26.73 % ID	2.20 % ID/g	0.33	0.83	0.65	1.72	39.99 % ID	1.97 % ID/g	0.40	1.14	0.66	2.30	52.08 % ID	1.60 % ID/g	Tumour/Blood, mean (120 min post injection): 0.37; Tumour/Heart, mean (120 min post injection): 0.91; Tumour/Lung, mean (120 min post injection): 0.61; Tumour/Muscle, mean (120 min post injection): 2.44
NC(=O)[C@H](Cc1ccc(O)c([123I])c1)NC(=O)CCOCCOCCOCCOCCOCCOCCOCCOCCOCCOCCOCCNC(=O)CCN(C1(C(=O)NO)CCCC1)S(=O)(=O)c1ccc(Oc2ccc(F)cc2)cc1 [Compound 44A]	3.94 % ID	1.14 % ID/g	0.41	0.86	0.49	1.91	5.85 % ID	0.5 % ID/g	0.38	0.870	0.54	1.57	6.36 % ID	0.66 % ID/g	0.42	0.940	0.69	2.3	9.42 % ID	0.53 % ID/g	Tumour/Blood, mean (120 min post injection): 0.43; Tumour/Heart, mean (120 min post injection): 1.060; Tumour/Lung, mean (120 min post injection): 0.72; Tumour/Muscle, mean (120 min post injection): 2.8
